For one data set, the system named is Enterobacter cloacae. Put plainly: Antibacterial activity against Enterobacter cloacae 1454 assessed as growth inhibition by microbroth dilution assay. The data set is classed as functional. (In general: Dilution methods test growth across graded concentrations, often in twofold steps.)
For the next data set, the system named is Staphylococcus aureus. Nature of the data set: Antibacterial activity against Staphylococcus aureus 635 assessed as growth inhibition by microbroth dilution assay. The data set is classed as functional.
The next data set deals with Pseudomonas aeruginosa. Nature of the data set: Antibacterial activity against Pseudomonas aeruginosa 1419 assessed as growth inhibition by microbroth dilution assay. In kind it is functional.
In a further data set the test system is Acinetobacter baumannii. Nature of the data set: Antibacterial activity against Acinetobacter baumannii 5075 assessed as growth inhibition by microbroth dilution assay. The data set is classed as functional. As to conditions: AB5075.
The subject of another data set is Klebsiella pneumoniae. Put plainly: Antibacterial activity against Klebsiella pneumoniae 1433 assessed as growth inhibition by microbroth dilution assay. In kind it is functional.
The test system of the next data set is Enterococcus faecium. Put plainly: Antibacterial activity against Enterococcus faecium 1450 assessed as growth inhibition by microbroth dilution assay. The data set is classed as functional.
In a further data set the test system is Erythrocyte. Put plainly: Hemolytic activity in human RBC assessed as hemolysis at 50 uM. In kind it is ADME, cell-based.
Data set [1] can be described thus: Hemolytic activity in human RBC assessed as hemolysis at 50 uM relative to control. The data set is classed as ADME, cell-based, Erythrocyte. As to conditions: red blood cells (erythrocytes), read-out: Activity.

Numbered stars: 1 amine (or outer) side, 2 acyl side, 3 side chain; on linkers, the order of the positions; unused ones are H or OH. Square brackets hold non-standard residues; d marks the D form. Peptide text beside a SMILES is read from it. X1 = NN([C@H](Cc1ccccc1)C(=O)[*:2])[*:1]; Orn(Nα-NH2) = NCCC[C@H](NN)C(=O)O; Orn = NCCC[C@H](N)C(=O)O

For `CC(C)C[C@@H]1NC(=O)[C@H](CCCN)N(N)C(=O)[C@H](C(C)C)NC(=O)[C@@H]2CCCN2C(=O)[C@@H](Cc2ccccc2)N(N)C(=O)[C@H](CC(C)C)NC(=O)[C@H](CCCN)NC(=O)[C@H](C(C)C)NC(=O)[C@@H]2CCCN2C(=O)[C@@H](Cc2ccccc2)NC1=O` (cyclo(L[dF]PV[Orn]L[X1]PV[Orn(Nα-NH2)])), the MIC in the data set with Enterobacter cloacae was determined as 30 µM; in the data set on Staphylococcus aureus, 2 µM; in the data set on Pseudomonas aeruginosa, 15 µM; in the data set with Acinetobacter baumannii, 6.5 µM; in the data set with Klebsiella pneumoniae, 45 µM; in the data set with Enterococcus faecium, 3 µM.
For `CC(C)C[C@@H]1NC(=O)[C@H](CCCN)NC(=O)[C@H](C(C)C)NC(=O)[C@@H]2CCCN2C(=O)[C@@H](Cc2ccccc2)NC(=O)[C@H](CC(C)C)NC(=O)[C@H](CCCN)NC(=O)[C@H](C(C)C)NC(=O)[C@@H]2CCCN2C(=O)[C@@H](Cc2ccccc2)NC1=O` (cyclo(V[Orn]L[dF]PV[Orn]L[dF]P)), the MIC in the data set with Enterobacter cloacae is 35 µM; in the data set with Staphylococcus aureus, 3 µM; with Pseudomonas aeruginosa, 20 µM; in the data set with Acinetobacter baumannii, 6.5 µM; in the data set on Klebsiella pneumoniae, 40 µM; in the data set on Enterococcus faecium, 3 µM.
For the compound `CC(C)C[C@@H]1NC(=O)[C@H](CCCN)NC(=O)[C@H](C(C)C)NC(=O)[C@@H]2CCCN2C(=O)[C@@H](Cc2ccccc2)N(N)C(=O)[C@H](CC(C)C)NC(=O)[C@H](CCCN)NC(=O)[C@H](C(C)C)NC(=O)[C@@H]2CCCN2C(=O)[C@@H](Cc2ccccc2)N(N)C1=O` (cyclo(L[X1]PV[Orn]L[X1]PV[Orn])), the minimum inhibitory concentration (MIC) in the data set with Enterobacter cloacae was greater than 50 µM; in the data set with Staphylococcus aureus, 4 µM; in the data set on Pseudomonas aeruginosa, 35 µM; in the data set on Acinetobacter baumannii, 12.5 µM; in the data set on Klebsiella pneumoniae it was greater than 50 µM; in the data set with Enterococcus faecium, 4 µM. Moreover, the Activity result in the data set with Erythrocyte was “Toxic”.
`CC(C)C[C@@H]1NC(=O)[C@H](CCCN)N(N)C(=O)[C@H](C(C)C)NC(=O)[C@@H]2CCCN2C(=O)[C@@H](Cc2ccccc2)N(N)C(=O)[C@H](CC(C)C)NC(=O)[C@H](CCCN)N(N)C(=O)[C@H](C(C)C)NC(=O)[C@@H]2CCCN2C(=O)[C@@H](Cc2ccccc2)N(N)C1=O` (cyclo(L[X1]PV[Orn(Nα-NH2)]L[X1]PV[Orn(Nα-NH2)])): the MIC is greater than 50 µM in the data set on Enterobacter cloacae; 2 µM with Staphylococcus aureus; 15 µM with Pseudomonas aeruginosa; 5 µM in the data set on Acinetobacter baumannii; greater than 50 µM with Klebsiella pneumoniae; 2 µM in the data set with Enterococcus faecium. Also, in the data set on Erythrocyte, the Activity result is “Toxic”.
As for `CC(C)C[C@@H]1NC(=O)[C@H](CCCN)NC(=O)[C@H](C(C)C)NC(=O)[C@@H]2CCCN2C(=O)[C@@H](Cc2ccccc2)NC(=O)[C@H](CC(C)C)NC(=O)[C@H](CCCN)NC(=O)[C@H](C(C)C)NC(=O)[C@@H]2CCCN2C(=O)[C@@H](Cc2ccccc2)NC1=O` (cyclo(L[dF]PV[Orn]L[dF]PV[Orn])), the hemolysis at 50 µM in data set [1] came out at 22%.
As for `CC(C)C[C@@H]1NC(=O)[C@H](CCCN)N(N)C(=O)[C@H](C(C)C)NC(=O)[C@@H]2CCCN2C(=O)[C@@H](Cc2ccccc2)N(N)C(=O)[C@H](CC(C)C)NC(=O)[C@H](CCCN)N(N)C(=O)[C@H](C(C)C)NC(=O)[C@@H]2CCCN2C(=O)[C@@H](Cc2ccccc2)NC1=O` (cyclo(L[dF]PV[Orn(Nα-NH2)]L[X1]PV[Orn(Nα-NH2)])), the minimum inhibitory concentration (MIC) with Enterobacter cloacae was greater than 50 µM; in the data set on Staphylococcus aureus, 2 µM; with Pseudomonas aeruginosa, 12 µM; in the data set with Acinetobacter baumannii, 6 µM; in the data set on Klebsiella pneumoniae, greater than 50 µM; with Enterococcus faecium it was 2 µM.
For `CC(C)C[C@@H]1NC(=O)[C@H](CCCN)NC(=O)[C@H](C(C)C)NC(=O)[C@@H]2CCCN2C(=O)[C@@H](Cc2ccccc2)NC(=O)[C@H](CC(C)C)NC(=O)[C@H](CCCN)N(N)C(=O)[C@H](C(C)C)NC(=O)[C@@H]2CCCN2C(=O)[C@@H](Cc2ccccc2)NC1=O` (cyclo(L[dF]PV[Orn]L[dF]PV[Orn(Nα-NH2)])), the MIC in the data set with Enterobacter cloacae came out at 30 µM; with Staphylococcus aureus, 2 µM; with Pseudomonas aeruginosa, 13 µM; in the data set with Acinetobacter baumannii, 6.5 µM; with Klebsiella pneumoniae, 40 µM; in the data set with Enterococcus faecium it was 3 µM.
Regarding `CC(C)C[C@@H]1NC(=O)[C@H](CCCN)N(N)C(=O)[C@H](C(C)C)NC(=O)[C@@H]2CCCN2C(=O)[C@@H](Cc2ccccc2)NC(=O)[C@H](CC(C)C)NC(=O)[C@H](CCCN)N(N)C(=O)[C@H](C(C)C)NC(=O)[C@@H]2CCCN2C(=O)[C@@H](Cc2ccccc2)NC1=O` (cyclo(L[dF]PV[Orn(Nα-NH2)]L[dF]PV[Orn(Nα-NH2)])), in data set [1], the hemolysis at 50 µM stood at 16%. For the same compound, the MIC in the data set on Enterobacter cloacae is 20 µM; in the data set with Staphylococcus aureus, 2 µM; with Pseudomonas aeruginosa it was 10 µM; in the data set with Acinetobacter baumannii, 4 µM; with Klebsiella pneumoniae it was 45 µM; with Enterococcus faecium it was 2 µM.
`CC(C)C[C@@H]1NC(=O)[C@H](CCCN)NC(=O)[C@H](C(C)C)NC(=O)[C@@H]2CCCN2C(=O)[C@@H](Cc2ccccc2)N(N)C(=O)[C@H](CC(C)C)NC(=O)[C@H](CCCN)N(N)C(=O)[C@H](C(C)C)NC(=O)[C@@H]2CCCN2C(=O)[C@@H](Cc2ccccc2)NC1=O` (cyclo(L[dF]PV[Orn(Nα-NH2)]L[X1]PV[Orn])): the MIC with Enterobacter cloacae amounted to 15 µM; in the data set with Staphylococcus aureus it was 2 µM; in the data set on Pseudomonas aeruginosa, 15 µM; with Acinetobacter baumannii, 6.5 µM; in the data set with Klebsiella pneumoniae, 45 µM; with Enterococcus faecium it was 3 µM.
As to `CC(C)C[C@@H]1NC(=O)[C@H](CCCN)NC(=O)[C@H](C(C)C)NC(=O)[C@@H]2CCCN2C(=O)[C@@H](Cc2ccccc2)N(N)C(=O)[C@H](CC(C)C)NC(=O)[C@H](CCCN)N(N)C(=O)[C@H](C(C)C)NC(=O)[C@@H]2CCCN2C(=O)[C@@H](Cc2ccccc2)N(N)C1=O` (cyclo(L[X1]PV[Orn]L[X1]PV[Orn(Nα-NH2)])), the minimal inhibitory concentration (MIC) in the data set with Enterobacter cloacae is 35 µM; with Staphylococcus aureus it was 3 µM; in the data set with Pseudomonas aeruginosa, 20 µM; in the data set on Acinetobacter baumannii it was 6.5 µM; with Klebsiella pneumoniae, 50 µM; with Enterococcus faecium it was 3 µM.
As for `CC(C)C[C@@H]1NC(=O)[C@H](CCCN)NC(=O)[C@H](C(C)C)NC(=O)[C@@H]2CCCN2C(=O)[C@@H](Cc2ccccc2)N(N)C(=O)[C@H](CC(C)C)NC(=O)[C@H](CCCN)NC(=O)[C@H](C(C)C)NC(=O)[C@@H]2CCCN2C(=O)[C@@H](Cc2ccccc2)NC1=O` (cyclo(L[dF]PV[Orn]L[X1]PV[Orn])), the minimum inhibitory concentration (MIC) in the data set on Enterobacter cloacae stood at 40 µM; in the data set with Staphylococcus aureus it was 4 µM; in the data set with Pseudomonas aeruginosa, 20 µM; with Acinetobacter baumannii, 6 µM; in the data set with Klebsiella pneumoniae it was 45 µM; in the data set on Enterococcus faecium, 5 µM.

A word on the MIC: it is the smallest concentration in the dilution series that meets the test's criterion for growth inhibition.

Source of the values: ChEMBL document CHEMBL4622897, “Synthesis and biological evaluation of backbone-aminated analogues of gramicidin S” (Bioorg Med Chem Lett, 2020).
